Measurements reported in patent US11807650B2, “NMDA receptor modulators and uses thereof” (Novartis AG, priority 2016, dated 2023).

Target: T1, human GRIN1 (transcript variant NR1-3) and GRIN2D expressed in Xenopus oocytes (Homo sapiens, UniProt O15399)
T1 construct: GenScript (GRIN2D synthesis) SC115601; host or cells: Xenopus oocytes injected with cRNA (1 GluN1 : 2 GluN2)
Test: NR2D oocyte potentiation assay (two-electrode voltage clamp)
Type: cell-based
Conditions: 10 uM test compound; glutamate and glycine 10 μM each; holding potential −40 mV
Procedure: NR2D Oocyte Potentiation Assay. Xenopus oocytes (Xenopus 1, Dexter, Mich.) were initially separated from the lobes of an ovary using surgical forceps; they were then defolliculated by constant agitation at room temperature in OR-2 buffer (82.5 mM NaCl; 2.5 mM KCl; 1 mM MgCl2; 5 mM HEPES; pH 7.4) containing 2 mg/ml collagenase Type 1 (Fisher Scientific, USA) for 1.5-2 hours. The cells were then gently aspirated with a Pasteur pipette to remove the follicular tissue; this was followed by washing three times with OR-2 to remove all traces of collagenase. The oocytes were then washed in ND-96 (96 mM NaCl, 2 mM KCl, 1.8 mM CaCl2, 1 mM MgCl2, 5 mM HEPES, 50 ng/L gentamycin, 100 units/ml penicillin and 100 μg/ml streptomycin; pH 7.6) three times and this was followed by incubation in ND-96 at room temperature with mild agitation for 15 minutes; subsequently they were stored for at least 2 hours at 16° C. before sorting and selection for injection. Oocytes selected for injection were incubated overnight in ND-96 at 16° C.
The human GRIN1 (transcript variant NR1-3 (Origene, SKU #: SC115601, Rockville, Md.) and GRIN2D (NCBI locus NM_000836, sequence optimized and synthesized by GenScript) were linearized and transcribed using the mMessage mMachine kit (Life Technologies) and promoters SP6 (for GluN1) and T7 (for GluN2D). cRNAs were mixed together at a ratio of 1 GluN1:2 GluN2. Each oocyte was injected with 50 nL of cRNA and stored in ND96 (96 mM NaCl, 2 mM KCl, 1.8 mM CaCl2, 1 mM MgCl2, 5 mM HEPES, 50 ng/L gentamycin, 100 units/ml penicillin and 100 μg/ml streptomycin; pH 7.6) at 16° C. for 72 h prior to recording.
Currents were recorded using a two-electrode voltage-clamp amplifier (Oocyte Clamp OC-725C; Warner Instrument Corp, Hamden, Conn.), and digitized using Digidata 1550A and pClamp (v. 10) software (Molecular Devices, Sunnyvale, Calif.). Electrodes were filled with 3 M KCl and had resistances that ranged from 0.2-1 MO. All measurements were made at a holding potential of −40 mV. Cells were continuously perfused with oocyte recording solution containing 90 mM NaCl, 1 mM KCl, 0.5 mM BaCl2, and 10 mM HEPES (Ph 7.4). Glutamate and Glycine (co-agonists) were applied at respective concentrations of 10 μM each. Co-agonists were applied until a plateau was reached, and test compounds were then added in the continued presence of co-agonists until a new plateau was reached. After the addition of the last test compound concentration, the oocyte was washed with oocyte recording buffer. Fraction of current remaining was calculated as [(current in presence of test compound−background current)/(co-agonist current−background current)] and IC50 values were computed using Prism 6.0 (Graphpad).

T1 sequence (O15399 28-1336, other chains not shown): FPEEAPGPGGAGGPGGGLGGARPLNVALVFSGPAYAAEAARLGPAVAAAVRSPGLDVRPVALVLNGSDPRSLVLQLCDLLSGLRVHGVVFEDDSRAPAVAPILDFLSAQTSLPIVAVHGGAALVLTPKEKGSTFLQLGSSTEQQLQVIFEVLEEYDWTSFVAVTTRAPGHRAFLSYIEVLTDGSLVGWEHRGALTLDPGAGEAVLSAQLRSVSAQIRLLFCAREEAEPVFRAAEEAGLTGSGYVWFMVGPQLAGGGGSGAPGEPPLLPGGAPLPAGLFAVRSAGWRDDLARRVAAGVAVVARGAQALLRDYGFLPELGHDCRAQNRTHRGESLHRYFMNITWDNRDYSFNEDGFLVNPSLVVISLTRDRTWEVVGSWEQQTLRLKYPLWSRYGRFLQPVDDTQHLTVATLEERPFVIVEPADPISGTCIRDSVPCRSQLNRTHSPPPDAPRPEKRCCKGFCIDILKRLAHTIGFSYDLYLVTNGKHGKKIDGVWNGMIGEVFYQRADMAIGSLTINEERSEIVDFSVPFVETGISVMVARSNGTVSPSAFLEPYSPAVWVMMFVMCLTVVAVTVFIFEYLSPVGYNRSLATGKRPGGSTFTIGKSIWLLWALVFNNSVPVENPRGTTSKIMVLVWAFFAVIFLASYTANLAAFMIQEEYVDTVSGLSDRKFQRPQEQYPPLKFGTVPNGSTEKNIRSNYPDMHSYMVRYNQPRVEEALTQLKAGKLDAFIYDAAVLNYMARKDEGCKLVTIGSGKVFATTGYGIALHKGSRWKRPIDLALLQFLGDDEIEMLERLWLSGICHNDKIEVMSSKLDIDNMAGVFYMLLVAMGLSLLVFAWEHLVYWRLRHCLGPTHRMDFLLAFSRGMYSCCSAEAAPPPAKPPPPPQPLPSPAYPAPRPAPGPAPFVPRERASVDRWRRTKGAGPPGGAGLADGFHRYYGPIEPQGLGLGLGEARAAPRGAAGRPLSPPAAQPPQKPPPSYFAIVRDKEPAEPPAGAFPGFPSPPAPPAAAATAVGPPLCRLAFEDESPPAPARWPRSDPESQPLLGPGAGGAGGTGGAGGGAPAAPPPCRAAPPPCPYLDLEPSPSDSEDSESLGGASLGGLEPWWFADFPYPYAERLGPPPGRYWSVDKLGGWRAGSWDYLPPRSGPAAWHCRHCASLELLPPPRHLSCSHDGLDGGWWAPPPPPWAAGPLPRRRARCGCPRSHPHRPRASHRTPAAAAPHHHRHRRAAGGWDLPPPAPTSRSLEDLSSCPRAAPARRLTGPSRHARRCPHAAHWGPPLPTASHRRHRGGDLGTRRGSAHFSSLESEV

activation at 10 µM | NR2D Oocyte % Potentiation @ 10 uM | SMILES
> 1000% | – | C[C@H]1CSc2nc(-c3cnc(C(C)(C)C)nc3)c(C#N)c(=O)n2C1 [Example 73, (R)-8-(2-(tert-butyl)pyrimidin-5-yl)-3-methyl-6-oxo-3,4-dihydro-2H,6H-pyrimido[2,1-b][1,3]thiazine-7-carbonitrile]
500 to 1000% | – | C[C@@H]1CSc2nc(-c3cnc(C(C)(C)C)nc3)c(C#N)c(=O)n2C1 [Example 74, (S)-8-(2-(tert-butyl)pyrimidin-5-yl)-3-methyl-6-oxo-3,4-dihydro-2H,6H-pyrimido[2,1-b][1,3]thiazine-7-carbonitrile]
> 1000% | – | CC(C)(C)c1ncc(-c2nc3n(c(=O)c2C#N)CCCS3)cc1F [Example 75, 8-(6-(tert-butyl)-5-fluoropyridin-3-yl)-6-oxo-3,4-dihydro-2H,6H-pyrimido[2,1-b][1,3]thiazine-7-carbonitrile]
> 1000% | – | CC1CSc2nc(-c3cnc(C(C)(C)C)c(F)c3)c(C#N)c(=O)n2C1 (stereo not shown) [Example 76, 8-(6-(tert-butyl)-5-fluoropyridin-3-yl)-3-methyl-6-oxo-3,4-dihydro-2H,6H-pyrimido[2,1-b][1,3]thiazine-7-carbonitrile]
10 to 100% | – | CC(C)(C)c1ccc(-c2nc3n(c(=O)c2C#N)CCCO3)cn1 [Example 77, 8-(6-(tert-butyl)pyridin-3-yl)-6-oxo-3,4-dihydro-2H,6H-pyrimido[2,1-b][1,3]oxazine-7-carbonitrile]
10 to 100% | – | CC(C)(C#N)c1ccc(-c2nc3n(c(=O)c2C#N)CCCS3)cn1 [Example 78, 8-(6-(2-cyanopropan-2-yl)pyridin-3-yl)-6-oxo-3,4-dihydro-2H,6H-pyrimido[2,1-b][1,3]thiazine-7-carbonitrile]
100 to 500% | – | CC1CSc2nc(-c3ccc(C(C)(C)C#N)nc3)c(C#N)c(=O)n2C1 (stereo not shown) [Example 79, 8-[6-(1-cyano-1-methylethyl)pyridin-3-yl]-3-methyl-6-oxo-2H,3H,4H,6H-pyrimido[2,1-b] [1,3]thiazine-7-carbonitrile]
100 to 500% | – | CC(C)C1CSc2nc(-c3ccc(C(C)(C)C)nc3)c(C#N)c(=O)n2C1 (stereo not shown) [Example 80, 8-(6-(tert-butyl)pyridin-3-yl)-3-isopropyl-6-oxo-3,4-dihydro-2H,6H-pyrimido[2,1-b][1,3]thiazine-7-carbonitrile]
> 1000% | – | CCC1CSc2nc(-c3ccc(C(C)(C)C)nc3)c(C#N)c(=O)n2C1 (stereo not shown) [Example 81, 8-(6-tert-butylpyridin-3-yl)-3-ethyl-6-oxo-2H,3H,4H, 6H-pyrimido [2,1-b][1,3] thiazine-7-carbonitrile]
– | Inhibitor | CCOC(=O)c1ccc(-c2nc3n(c(=O)c2C#N)CCCS3)cn1 [Example 82, ethyl 5-(7-cyano-6-oxo-3,4-dihydro-2H,6H-pyrimido[2,1-b][1,3]thiazin-8-yl)picolinate]
10 to 100% | – | CC(C)(O)c1ccc(-c2nc3n(c(=O)c2C#N)CCCS3)cn1 [Example 83, 8-(6-(2-hydroxypropan-2-yl)pyridin-3-yl)-6-oxo-3,4-dihydro-2H,6H-pyrimido[2,1-b][1,3]thiazine-7-carbonitrile]
< 10% | – | CCOC(=O)c1ccc(-c2nc3n(c(=O)c2C#N)CC(C)CS3)cn1 (stereo not shown) [Example 84, ethyl 5-(7-cyano-3-methyl-6-oxo-3,4-dihydro-2H,6H-pyrimido[2,1-b][1,3]thiazin-8-yl)picolinate]
10 to 100% | – | CC1CSc2nc(-c3ccc(C(C)(C)O)nc3)c(C#N)c(=O)n2C1 (stereo not shown) [Example 85, 8-(6-(2-hydroxypropan-2-yl)pyridin-3-yl)-3-methyl-6-oxo-3,4-dihydro-2H,6H-pyrimido[2,1-b][1,3]thiazine-7-carbonitrile]
100 to 500% | – | COC(=O)C1CSc2nc(-c3ccc(C(C)(C)C)nc3)c(C#N)c(=O)n2C1 (stereo not shown) [Example 86, methyl 8-(6-(tert-butyl)pyridin-3-yl)-7-cyano-6-oxo-3,4-dihydro-2H,6H-pyrimido[2,1-b][1,3]thiazine-3-carboxylate]
500 to 1000% | – | CC(C)(C)c1ccc(-c2nc3n(c(=O)c2C#N)CC(CO)CS3)cn1 (stereo not shown) [Example 87, 8-(6-(tert-butyl)pyridin-3-yl)-3-(hydroxymethyl)-6-oxo-3,4-dihydro-2H,6H-pyrimido[2,1-b][1,3]thiazine-7-carbonitrile]
500 to 1000% | – | CC(C)(C)c1ccc(-c2nc3n(c(=O)c2C#N)CC(CF)CS3)cn1 (stereo not shown) [Example 88, 8-(6-(tert-butyl)pyridin-3-yl)-3-(fluoromethyl)-6-oxo-3,4-dihydro-2H,6H-pyrimido[2,1-b][1,3]thiazine-7-carbonitrile]
100 to 500% | – | COC(=O)C1CSc2nc(-c3cnc(C(C)(C)C)nc3)c(C#N)c(=O)n2C1 (stereo not shown) [Example 89, methyl 8-(2-(tert-butyl)pyrimidin-5-yl)-7-cyano-6-oxo-3,4-dihydro-2H,6H-pyrimido[2,1-b][1,3]thiazine-3-carboxylate]
500 to 1000% | – | CC(C)(C)c1ncc(-c2nc3n(c(=O)c2C#N)CC(CO)CS3)cn1 (stereo not shown) [Example 90, 8-(2-(tert-butyl)pyrimidin-5-yl)-3-(hydroxymethyl)-6-oxo-3,4-dihydro-2H,6H-pyrimido[2,1-b][1,3]thiazine-7-carbonitrile]
500 to 1000% | – | CC(C)(C)c1ncc(-c2nc3n(c(=O)c2C#N)CC(CF)CS3)cn1 (stereo not shown) [Example 91, 8-(2-(tert-butyl)pyrimidin-5-yl)-3-(fluoromethyl)-6-oxo-3,4-dihydro-2H,6H-pyrimido[2,1-b][1,3]thiazine-7-carbonitrile]
> 1000% | – | CC(C)(C)c1ncc(-c2nc3n(c(=O)c2C#N)CC(CO)CS3)cc1F (stereo not shown) [Example 92, 8-(6-(tert-butyl)-5-fluoropyridin-3-yl)-3-(hydroxymethyl)-6-oxo-3,4-dihydro-2H,6H-pyrimido[2,1-b][1,3]thiazine-7-carbonitrile]
500 to 1000% | – | CC1CCn2c(nc(-c3ccc(C(C)(C)C)nc3)c(C#N)c2=O)S1 (stereo not shown) [Example 93, 8-(6-(tert-butyl)pyridin-3-yl)-2-methyl-6-oxo-3,4-dihydro-2H,6H-pyrimido[2,1-b][1,3]thiazine-7-carbonitrile]
100 to 500% | – | CN1CCCn2c1nc(-c1ccc(C(C)(C)C)nc1)c(C#N)c2=O [Example 94, 8-(6-(tert-butyl)pyridin-3-yl)-1-methyl-6-oxo-1,3,4,6-tetrahydro-2H-pyrimido[1,2-a]pyrimidine-7-carbonitrile]
100 to 500% | – | C=C(C)c1ccc(-c2nc3n(c(=O)c2C#N)CCCS3)cn1 [Example 95, 6-oxo-8-(6-(prop-1-en-2-yl)pyridin-3-yl)-3,4-dihydro-2H,6H-pyrimido[2,1-b][1,3]thiazine-7-carbonitrile]
> 1000% | – | C[C@H]1CSc2cc(-c3ccc(C(C)(C)C)nc3)c(C#N)c(=O)n2C1 [Example 96, (R)-8-(6-(tert-butyl)pyridin-3-yl)-3-methyl-6-oxo-3,4-dihydro-2H,6H-pyrido[2,1-b][1,3]thiazine-7-carbonitrile]
> 1000% | – | C[C@@H]1CSc2cc(-c3ccc(C(C)(C)C)nc3)c(C#N)c(=O)n2C1 [Example 97, (S)-8-(6-(tert-butyl)pyridin-3-yl)-3-methyl-6-oxo-3,4-dihydro-2H,6H-pyrido[2,1-b][1,3]thiazine-7-carbonitrile]
> 1000% | – | C[C@H]1CSc2nc(-c3cnc(C(C)(C)C)c(F)c3)c(C#N)c(=O)n2C1 [Example 98, (R)-8-(6-(tert-butyl)-5-fluoropyridin-3-yl)-3-methyl-6-oxo-3,4-dihydro-2H,6H-pyrimido[2,1-b][1,3]thiazine-7-carbonitrile]
> 1000% | – | C[C@@H]1CSc2nc(-c3cnc(C(C)(C)C)c(F)c3)c(C#N)c(=O)n2C1 [Example 99, (S)-8-(6-(tert-butyl)-5-fluoropyridin-3-yl)-3-methyl-6-oxo-3,4-dihydro-2H,6H-pyrimido[2,1-b][1,3]thiazine-7-carbonitrile]
> 1000% | – | C[C@H]1CSc2nc(-c3cnc(C(C)(C)C)nc3)c(C#N)c(=N)n2C1 [Example 100, (R)-8-(2-(tert-butyl)pyrimidin-5-yl)-6-imino-3-methyl-3,4-dihydro-2H,6H-pyrimido[2,1-b][1,3]thiazine-7-carbonitrile]
